Values quoted from earlier work as cited in US20070191228A1, “Natural herbicide” (priority 2005, published 2007).

Key:
[1] = tested on: large crabgrass (Digitaria sanguimalis); details: Owens 1973
[2] = tested on: sorghum (Sorghhum bicolor (L.)); details: Owens 1973

N[C@H](CO)CO/C=C/[C@H](N)C(=O)O [Rhizobitoxine, rhizobitoxine]
herbicidal activity [1]: herbicidal | herbicidal activity [2]: herbicidal
